Values belong to the molecule of their own block, whether it stands above or below them.
Organism: Oryctolagus cuniculus
Experiment: Activity against [Ca2+]-ATPase assay in rabbit myocardial membrane.
Assay type: cell membranes
Settings: Myocardium

Activity: 0.5 µM
Structure (SMILES): Cc1cnccc1-c1cnc(O)c(C#N)c1

Activity: 6 µM
Structure (SMILES): Cc1nc(O)c(N)cc1-c1ccncc1

Activity: 0.03 µM
Structure (SMILES): Cc1cnccc1-c1cnc(O)c(N)c1

Continued, molecule first:

Structure (SMILES): Cc1nc(O)c(Br)cc1-c1ccncc1
Activity: 6.6 µM

Structure (SMILES): Cc1cnccc1-c1cc(C#N)c(O)nc1C
Activity: 3.3 µM

Structure (SMILES): Cc1[nH]c(=O)c(C#N)cc1-c1ccncc1
Activity: 10.7 µM

Structure (SMILES): Nc1cc(-c2ccncc2)c[nH]c1=O
Activity: 1.4 µM
